From patent US20070270436A1, “NOVEL AMINO- AND IMINO-ALKYLPIPERAZINES” (Recordati Ireland Limited, priority 2006, published 2007)
Read-outs that look alike come from different tables or passages of the source.

Key:
[1] = target: T1, human cloned 5-HT1A receptors (Homo sapiens, UniProt P08908); experiment: [35S]GTPγS binding, functional activity; type: biochemical; set-up: key: neutral antagonists (NA); inverse agonists (IA); conditions: HeLa membranes with human 5-HT1A
T1 construct: expressed in transfected cells; host or cells: HeLa (human), stably transfected; membranes
T1 sequence (P08908 1-422): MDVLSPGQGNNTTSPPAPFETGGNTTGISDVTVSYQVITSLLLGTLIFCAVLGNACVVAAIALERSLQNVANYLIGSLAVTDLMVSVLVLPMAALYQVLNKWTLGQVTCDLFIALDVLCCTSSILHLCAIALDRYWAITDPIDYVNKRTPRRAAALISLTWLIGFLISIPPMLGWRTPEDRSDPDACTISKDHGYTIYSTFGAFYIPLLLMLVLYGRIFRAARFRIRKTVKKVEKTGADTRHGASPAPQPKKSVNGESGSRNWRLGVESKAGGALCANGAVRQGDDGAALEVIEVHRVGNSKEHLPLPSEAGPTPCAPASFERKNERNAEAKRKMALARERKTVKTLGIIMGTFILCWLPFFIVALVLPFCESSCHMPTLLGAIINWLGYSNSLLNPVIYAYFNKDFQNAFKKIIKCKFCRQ
Description: On the date of the experiment, cell membranes from HeLa cells transfected with human cloned 5-HT1A receptors were resuspended in buffer pH 7.4 containing 20 mM HEPES, 3 mM MgCl2 and 120 mM NaCl (Stanton, J. A.; Beer, M. S. Eur. J. Pharmacol. 320, 267-275, 1997). The membranes were incubated with 10 μM GDP and decreasing concentrations of test drugs (from 100 μM to 0.1 nM) or decreasing concentrations of 5-HT (from 100 μM to 0.1 nM, reference curve) for 20 min at 30° C. in a final volume of about 0.25 ml. [^35S]GTPγS (200-250 pM in 10 μl) was added to samples and incubated for a further 30 min at 30° C. Non-specific binding was determined in the presence of 10 μM GTPγS. The incubation was stopped by addition of ice-cold HEPES buffer and rapid filtration on Unifilter GF/C filters, using a Filtermate cell harvester (Packard). The filters were washed four times with total 1.2 ml of same buffer. Radioactivity was counted by liquid scintillation spectrometry with efficiency >90% (TopCount Packard). Stimulation of [^35S]GTPγS binding induced by the compounds tested was expressed as % increase in binding above basal value, being the maximal stimulation observed with 5-HT taken as 100%. The concentration-response curve of the agonistic activity was analyzed by non linear fitting program (De Lean et al., Am. J. Physiol. 235, E97-E102, 1978).
A stimulation of [^35S]GTPγS binding represented the functional correlate of the binding of an agonist compound at the 5-HT1A receptors. Stimulation induced by the endogenous ligand 5-HT was considered the maximal stimulation attainable. Compounds stimulating [^35S]GTPγS binding at a lower level were considered as partial agonists. […] Compounds that reduced [^35S]GTPγS binding were considered as inverse agonists.

[2] = target: T2, human 5HT1A-serotonergic receptor (Homo sapiens, UniProt P08908); experiment: Radioligand binding to recombinant 5-HT1A receptor ([3H]8-OH-DPAT, HeLa cell membranes); conditions: 1 nM [3H]8-OH-DPAT; Ki from IC50 by the Cheng equation; read-out: Ki (nM), binding affinity for 5HT1A receptor
T2 construct: expressed in transfected cells; host or cells: HeLa (human), stably transfected; membranes
T2 sequence (P08908 1-422): T1 sequence (P08908 1-422)
How it was run: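 Membranes from HeLa cells stably expressing human 5-HT1A incubated 30 min at 30 °C with 1 nM [3H]8-OH-DPAT in 50 mM Tris pH 7.4, 2.5 mM MgCl2, 10 μM pargyline; non-specific binding with 10 μM 5-HT. Filtration read-out; IC50 by curve fitting, converted to Ki via Cheng-Prusoff.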

5-HT1A receptors = target: T3, 5-HT1A receptors (Rattus norvegicus, UniProt P19327); experiment: Inhibition of serotonergic syndrome (forepaw treading) induced by 8-OH-DPAT in rats (post-synaptic antagonism); type: in vivo; conditions: rat, 10 mg/kg p.o.
T3 construct: from tissue; host or cells: living male Sprague-Dawley rats (whole animal, behavioural read-out)
T3 sequence (P19327 1-422): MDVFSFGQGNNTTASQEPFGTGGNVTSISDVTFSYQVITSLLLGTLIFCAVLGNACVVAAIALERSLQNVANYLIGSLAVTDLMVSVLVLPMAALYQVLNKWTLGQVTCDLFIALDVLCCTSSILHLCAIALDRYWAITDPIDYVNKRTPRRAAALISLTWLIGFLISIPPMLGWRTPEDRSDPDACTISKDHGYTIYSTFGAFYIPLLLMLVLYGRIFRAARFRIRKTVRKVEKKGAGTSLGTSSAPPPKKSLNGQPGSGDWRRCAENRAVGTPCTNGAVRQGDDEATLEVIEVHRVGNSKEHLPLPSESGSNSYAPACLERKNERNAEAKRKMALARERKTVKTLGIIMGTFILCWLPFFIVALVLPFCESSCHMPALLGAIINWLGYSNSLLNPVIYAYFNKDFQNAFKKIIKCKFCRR
Description: The inhibitory effect of 5-HT1A-receptor antagonists on stereotyped forepaw treading induced in rats by subcutaneous injection of 8-OH-DPAT was evaluated by the method of Tricklebank (Tricklebank et al., Eur. J. Pharmacol., 117: 15, 1985) with minor modifications as described below.
Male Sprague-Dawley rats [Crl: CD® (SD) IGS BR] weighing 150-175 g from Charles River Italia were used. The animals were housed with free access to food and water and maintained on a forced 12-hour-light/12-hour-dark cycle at 22-24° C. of temperature. On the day of the experiment, the rats were placed singly in clear plastic containers, 10-15 minutes before oral administration of the vehicle or compounds to be tested. For evaluation of antagonistic activity, the compounds were administered 1 and 4 hours before induction of stereotypy by 8-OH-DPAT (1 mg/kg subcutaneously). Observation sessions lasted 30 seconds and began 3 minutes after 8-OH-DPAT treatment and were repeated every 3 minutes over a period of 15 minutes.
The appearance of the symptoms induced by postsynaptic stimulation of 5-HT1A receptors was noted, and the intensity was scored using an intensity scale in which: 0=absent, 1=equivocal, 2=present and 3=intense. Behavioural scores for treated rats were accumulated throughout the observation time (5 observation periods) and expressed as mean values of 4 rats/dose. Change in mean values of treated animals in comparison with control (vehicle) group, expressed as per-cent inhibition, was used to quantify the antagonistic activity.
In order to quantitate the potency of the compound of Example 24 in inhibiting the stereotypy (forepaw treading) induced by 8-OH-DPAT, an ED50 value (dose inhibiting by 50% the forepaw treading) was evaluated by means of linear regression using the least square method.

[3] = system: rhythmic bladder-voiding contractions; experiment: Rhythmic bladder-voiding contractions induced by bladder filling in anaesthetised rats; type: in vivo, rat; conditions: for ED50: Rattus norvegicus
Description: Female Sprague-Dawley rats weighing 225-275 g (Crl: CD® (SD) IGS BR, Charles River Italia) were used. The animals were housed with free access to food and water and maintained on a forced 12-hour alternating light-dark cycle at 22-24° C. for at least one week, except during the experiment. The activity on rhythmic bladder voiding contractions was evaluated according to the method of Dray (Dray J., Pharmacol. Methods, 13:157, 1985), with some modifications as in Guarneri (Guarneri, Pharmacol. Res. 27:173, 1993). Briefly, the rats were anaesthetised by subcutaneous injection of 1.25 g/kg (5 ml/kg) urethane, after which the urinary bladder was catheterised via the urethra using PE 50 polyethylene tubing filled with physiological saline. The catheter was tied in place with a ligature around the external urethral orifice and was connected to conventional pressure transducers (Statham P23 ID/P23 XL). […] The bladder was then filled via the recording catheter by incremental volumes of warm (37° C.) saline until reflex bladder-voiding contractions occurred (usually 0.8-1.5 ml). For intravenous injection of bioactive compounds, PE 50 polyethylene tubing filled with physiological saline was inserted into the jugular vein.
From the cystometrogram, the number of contractions recorded 15 minutes before (basal values) and after treatment, as well as the mean amplitude of these contractions (mean height of the peaks in mmHg), was evaluated.
Since most compounds produced an effect that was relatively rapid in onset and led to a complete cessation of bladder contractions, bioactivity was conveniently estimated by measuring the duration of bladder quiescence (i.e., the time during which no contractions occurred). The number of tested animals showing a reduction in the number of contractions higher than 30% of that observed in the basal period was recorded too.
The extrapolated doses which induced a reduction in the number of contractions greater than 30% in 50% of the treated rats (ED50) were also evaluated by the method of Bliss (Bliss C. I., Quart J. Pharm. Pharmacol. 11, 192-216, 1938).

urinary bladder = experiment: Cystometric parameters in conscious rats after oral administration; type: in vivo, rat; conditions: 3 mg/kg p.o., 1-5 h after treatment
Description: Male Sprague-Dawley rats [Crl: CD® (SD) IGS BR] of 300-400 g body weight supplied by Charles River Italia were used. The animals were housed with free access to food and water and maintained on a forced 12-hour-light/12-hour-dark cycle at 22-24° C. of temperature, except during the experiment. To quantify urodynamic parameters in conscious rats, cystometrographic studies were performed according to the procedure previously reported (Guarneri et al., Pharmacol. Res. 24: 175, 1991).
Briefly, the rats were anaesthetised by intraperitoneal administration of 3 ml/kg of Equithensin solution (pentobarbital 30 mg/kg and chloral hydrate 125 mg/kg) and placed in a supine position. An approximately 10 mm-long midline incision was made in the shaved and cleaned abdominal wall. The urinary bladder was gently freed from adhering tissues, emptied and then cannulated via an incision in the bladder body, using a polyethylene cannula (0.58-mm internal diameter, 0.96-mm external diameter) which was permanently sutured with silk thread. The cannula was exteriorised through a subcutaneous tunnel in the retroscapular area, where it was connected to a plastic adapter in order to avoid the risk of removal by the animal. For drug testing, the rats were utilised one day after implantation.
On the day of the experiment, the rats were placed in modified Bollman cages, i.e., restraining cages that were large enough to permit the rats to adopt a normal crouched posture, but narrow enough to prevent turning around. After a stabilisation period of about 20 minutes, the free tip of the bladder cannula was connected through a T-shaped tube to a pressure transducer (Statham P23XL) and to a peristaltic pump (Gilson minipuls 2) for continues infusion of a warm (37° C.) saline solution into the urinary bladder, at a constant rate of 0.1 ml/minute. The intraluminal-pressure signal during infusion of saline into the bladder was continuously recorded on a polygraph (Rectigraph-8K San-ei with BM614/2 amplifier from Biomedica Mangoni). The cystometrogram was used to evaluate the urodynamic parameters of bladder volume capacity (BVC) and micturition pressure (MP). BVC (ml) is defined as the volume of saline infused into the bladder necessary to induce detrusor contraction followed by micturition. MP (mmHg) is defined as the maximal intravesical pressure caused by contraction during micturition. Basal BVC and MP values were evaluated as mean of the values observed in the cystometrograms recorded in an initial period of 30-60 minutes. Following determination of basal BVC and MP, the infusion was interrupted and the test compounds were administered orally by a stomach tube. Bladder infusion was resumed and changes in BVC and MP were evaluated from the mean values obtained in the cystometrograms observed during 1, 2, 3, 4 and 5 hours after treatment. Compounds were administered in a volume of 2 ml/kg and groups of control animals received the same amount of vehicle (0.5% methocel in water) orally.
Data were expressed as mean ±standard error. The percent changes of BVC and MP versus the basal values, as well as Δ values (difference in ml or mmHg) of BVC and MP (BVC or MP at time “x” minus basal value), were also evaluated for each rat/time. In the figures, data were reported as % changes versus basal values.
Statistical analysis on BVC and MP values, as well as on Δ values, was performed by S.A.S./STAT software, version 6.12. The observed differences between vehicle (control) and test treatments were evaluated on Δ values of BVC and MP, whereas the differences between the values at different times versus basal values were analyzed on original BVC and MP data.

primates = conditions: cited from earlier work
[4] = 1 h before 8-OH-DPAT 1 mg/kg s.c., read-out: % Inhibition of forepaw treading, 1 h
[5] = 4 h before 8-OH-DPAT 1 mg/kg s.c., read-out: % Inhibition of forepaw treading, 4 h

Functional Activity [1]	Ki [2] [nM]	inhibition at 10 mg/kg (5-HT1A receptors; [4]) [%]	inhibition at 10 mg/kg (5-HT1A receptors; [5]) [%]	Compound	other results
IA	1.69	87	86	COc1ccccc1N1CCN(CC[C@@H](c2ccccc2F)[C@H](NC(C)=O)C2CCCCC2)CC1 (racemic) [Example 7, N-{(RS,SR)-1-Cyclohexyl-2-(2-fluorophenyl)-4-[4-(2-methoxyphenyl)-piperazin-1-yl]butyl}acetamide]	–
IA	0.68	75	92	COC(=O)N[C@H](C1CCCCC1)[C@@H](CCN1CCN(c2ccccc2OC)CC1)c1ccccc1F (racemic) [Example 17, (RS,SR)-{1-Cyclohexyl-2-(2-fluorophenyl)-4-[4-(2-methoxyphenyl)-piperazin-1-yl]butyl}carbamic acid methyl ester]	–
–	–	–	–	CCN(CC)CC#CCOC(=O)C(O)(c1ccccc1)C1CCCCC1 (stereo not drawn) [Oxybutynin, oxybutynin]	ED50 ([3]; intravenous administration, n.a. = not active, no significant reduction of the height of the peaks, read-out: ED50 (amplitude) (extrapolated dose inducing a 30% reduction of amplitude of the contractions in 50% of treated rats)): 0.24 mg/kg; ED50 ([3]; intravenous administration, read-out: ED50 (frequency) (extrapolated dose inducing a reduction of the number of contractions >30% in 50% of treated rats)): > 10 mg/kg; frequency of bladder contractions ([3]; at 240 μg/kg): did not lower the frequency; ED10 min (extrapolated dose inducing 10 minutes of disappearance of the contractions) ([3]; intravenous administration): 7.77 mg/kg; bladder volume capacity (BVC) (urinary bladder): slight, not-significant increase; micturition pressure (MP) (urinary bladder): greatly reduced
–	–	–	–	COc1ccccc1N1CCN(CCN(C(=O)C2CCCCC2)c2ccccn2)CC1 [WAY-100635]	cognitive deficits induced by glutamatergic and cholinergic dysfunction (primates): can alleviate
